Some test systems named below: MDA-N; Hs-578T; A549; NCI-H226; TK-10; ACHN; NCI-H23; LOX IMVI; IGROV-1; SK-MEL-5; U-251; COLO 205; HOP-62; MOLT-4; OVCAR-8; OVCAR-5; SN12C; SF-268; MCF7; RXF 393.
Holding throughout (assay): growth of human tumour cells (NCI), 48 h

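Cells were grown in 96-well plates and exposed to each compound for 48 hours at five concentrations; endpoints were interpolated linearly between bracketing concentrations, or set to the highest concentration if not reached. GI50: concentration for 50% inhibition of growth.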 Activity calls are given as the source filed them. Rule as the data show it: active = GI50 up to about 1.1 µM and inactive = higher.

With `COc1cccc(CCCNC(=O)Cc2cc(OC)c(OC)cc2CO)c1`, the GI50 with MDA-N, with Hs-578T, in the assay on A549, in the assay with NCI-H226, in the assay with TK-10 and with ACHN was > 100 µM (inactive) throughout. In addition, the GI50 in the assay with NCI-H23 was > 100 µM (inactive); in the assay with LOX IMVI it was > 100 µM (inactive); in the assay with IGROV-1 it was > 100 µM (inactive); in the assay on SK-MEL-5, 83.2 µM (inactive); in the assay on U-251 it was > 100 µM (inactive); in the assay on COLO 205, > 100 µM (inactive). The GI50 in the assay with HOP-62, with MOLT-4, in the assay with OVCAR-8, in the assay on OVCAR-5 and with SN12C was > 100 µM (inactive) throughout.

`CSC1=N/C(=C\c2c[nH]c3ccccc23)C(=O)N1`: the GI50 is 43.4 µM (inactive) with Hs-578T; 69.8 µM (inactive) in the assay on A549; > 100 µM (inactive) in the assay on NCI-H226; 66.7 µM (inactive) in the assay with TK-10; 71 µM (inactive) in the assay on SF-268; 44.4 µM (inactive) in the assay with ACHN. Besides, the GI50 in the assay on NCI-H23 is > 100 µM (inactive); in the assay on LOX IMVI it was 78.3 µM (inactive); with IGROV-1, 67.6 µM (inactive); in the assay on SK-MEL-5, 39.4 µM (inactive); in the assay with U-251, 56.4 µM (inactive); in the assay with COLO 205, 63 µM (inactive). The GI50 in the assay on MCF7 is 28.8 µM (inactive); in the assay on HOP-62, 76.9 µM (inactive); in the assay on RXF 393, 92.7 µM (inactive); in the assay on MOLT-4, > 100 µM (inactive); in the assay on OVCAR-8, > 100 µM (inactive); in the assay on OVCAR-5 it was > 100 µM (inactive). Further, the GI50 in the assay on SN12C is > 100 µM (inactive).

Regarding `O=C1NC(c2cccc3ccccc23)Nc2ccccc21` (centres undefined), the GI50 in the assay on Hs-578T is 0.0147 µM (active); in the assay on A549, 0.0968 µM (active); in the assay with NCI-H226, 0.0875 µM (active); in the assay on TK-10, 0.157 µM (active); with SF-268, 0.832 µM (active); with ACHN it was 0.0708 µM (active). Besides, the GI50 was 0.0931 µM (active) in the assay on NCI-H23; 0.0906 µM (active) in the assay with LOX IMVI; 0.0457 µM (active) with IGROV-1; < 0.0202 µM (active) in the assay with SK-MEL-5; 0.0336 µM (active) with U-251; 0.0458 µM (active) in the assay with COLO 205. The GI50 is < 0.0171 µM (active) in the assay with MCF7; 0.139 µM (active) with HOP-62; 0.0302 µM (active) in the assay on RXF 393; 0.0528 µM (active) in the assay with MOLT-4; 0.105 µM (active) with OVCAR-8; 0.133 µM (active) with OVCAR-5. In the assay on SN12C, the GI50 is 0.132 µM (active).

Regarding `CC(C)(C)c1cc(C(=O)Nc2cc(Br)c(Br)cc2S(N)(=O)=O)cc(C(C)(C)C)c1O`, the GI50 was 11.9 µM (inactive) in the assay on Hs-578T; 9.12 µM (inactive) with A549; 13.1 µM (inactive) with NCI-H226; 12.9 µM (inactive) in the assay on TK-10; 13.3 µM (inactive) in the assay with SF-268; 11.3 µM (inactive) in the assay on ACHN. The GI50 was 20 µM (inactive) in the assay on NCI-H23; 6.46 µM (inactive) in the assay with LOX IMVI; 12.6 µM (inactive) with IGROV-1; 12.4 µM (inactive) with SK-MEL-5; 12.5 µM (inactive) in the assay on U-251; 5.08 µM (inactive) in the assay with COLO 205. The GI50 is 5.37 µM (inactive) in the assay with MCF7; 20.9 µM (inactive) in the assay with HOP-62; 11.1 µM (inactive) in the assay on RXF 393; 4.39 µM (inactive) in the assay on MOLT-4; 13.3 µM (inactive) in the assay on OVCAR-8; 12.4 µM (inactive) in the assay on OVCAR-5. Also, in the assay with SN12C, the GI50 was 7.24 µM (inactive).
